Measurements published in patent US20090182133A1 (priority 2005, published 2009).
Entries after “also recorded” stand apart in the source; their conditions may differ. Read-outs that look alike come from different tables or passages of the source.

Experiments:
[1] = biological target: HCV 3CL proteinase (Human coronavirus 229E, UniProt P0C6X1); test: biochemical; assay type: binding, common cold virus (HCoV-229E antigenic type)
[2] = biological target: T1, SARS 3CL proteinase (Severe acute respiratory syndrome coronavirus, UniProt P0C6X7); test: biochemical; assay type: binding, SARS-CoV
[3] = biological target: T1, SARS 3CL proteinase; test: biochemical; set-up: species or system SARS-CoV

HCV 3CL proteinase, sequence (P0C6X1 2966-3267 limits assumed): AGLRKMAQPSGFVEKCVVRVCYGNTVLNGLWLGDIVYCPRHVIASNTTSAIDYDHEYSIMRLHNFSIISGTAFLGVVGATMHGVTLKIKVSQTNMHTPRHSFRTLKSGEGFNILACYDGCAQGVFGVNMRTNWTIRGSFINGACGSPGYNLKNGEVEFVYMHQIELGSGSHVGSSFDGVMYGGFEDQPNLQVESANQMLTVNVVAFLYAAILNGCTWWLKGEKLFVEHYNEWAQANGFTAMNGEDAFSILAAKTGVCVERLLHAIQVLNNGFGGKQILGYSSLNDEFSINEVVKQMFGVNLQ

Row | SMILES | Kd [1] [µM] | affinity with HCV 3CL proteinases (in words) [1] | Kd [2] [µM] | coupling/affinity with SARS 3CL (in words) [2] | IC50 [3] [µM] | melting point [°C] | Kd ([2]; read-out: KD SARS 3CL) [µM] | Kd ([1]; read-out: KD HCV 3CL) [µM]
1 | O=c1c(O[C@@H]2O[C@H](CO)[C@@H](O)[C@H](O)[C@H]2O)c(-c2ccc(O)c(O)c2)oc2cc(O)cc(O)c12 [IA-1, Quercetin-3-O-β-D-glucopyranoside] | 28.8 | weaker affinity | – | – | – | – | – | –
2 | O=c1c(O[C@@H]2OC[C@@H](O)[C@@H](O)[C@@H]2O)c(-c2ccc(O)c(O)c2)oc2cc(O)cc(O)c12 [IA-3, Quercetin-3-O-β-D-arabinopyranoside] | 3.76 | high affinity | 13.2 | couple strongly | 31.6 | – | – | –
3 | C[C@H]1O[C@@H](Oc2c(-c3ccc(O)c(O)c3)oc3cc(O)cc(O)c3c2=O)[C@H](O)[C@@H](O)[C@H]1O [IA-4, Quercetin-3-O-β-D-fucopyranoside] | 5.75 | high affinity | 104 | couple strongly; also recorded: weaker affinity | 24.1 | – | – | –
4 | O=c1c(OC2CCCCC2)c(-c2ccc(O)c(O)c2)oc2cc(O)ccc12 [IB-1, 3-O-cyclohexyl-3′,4′,7-trihydroxy-flavonol] | 3.52 | high affinity | 33.7 | couple strongly | 33.1 | 98 to 100 | – | –
5 | O=c1c(OC2CCCCCC2)c(-c2ccc(O)c(O)c2)oc2cc(O)ccc12 [IB-3, 3-O-cycloheptyl-3′,4′,7-trihydroxy-flavonol] | 1.51 | high affinity | 33.5 | couple strongly | – | 68 to 71 | – | –
6 | O=c1c(OCC2COc3ccccc3O2)c(-c2cc(O)cc(O)c2)oc2cc(O)ccc12 (stereo not drawn) [IB-4, 3-(2,3-dihydro-benzo[1,4]dioxan-2-yl-methoxy)-3′,5′,7-trihydroxy-flavonol] | – | high affinity | – | couple strongly | – | – | 16.8 | 2.6
